Measured values from patent publication US9609868B2, “Alkoximino-substituted anthranilic acid diamides as pesticides” (BAYER CROPSCIENCE AKTIENGESELLSCHAFT, priority 2013, dated 2017).
Read-outs that look alike come from different tables or passages of the source.

Key:
[1] = log P by HPLC on reversed-phase column (C18), EEC directive 79/831 Annex V.A8; format: physicochemical; settings: for log p: data refer to the E isomer
Description: The log P values reported in the tables and Preparation Examples above were determined in accordance with EEC directive 79/831 Annex V.A8 by HPLC (High Performance Liquid Chromatography) using a reversed-phase column (C18). Temperature 43° C. The calibration is effected with unbranched alkan-2-ones (having 3 to 16 carbon atoms), for which the log P values are known.

Myzus persicae = Myzus persicae - spray test (MYZUPE); format: in vivo; settings: application rate 100 g/ha, Chinese cabbage leaf disks
Description: Myzus persicae—Spray Test (MYZUPE)
Solvent: 78 parts by weight of acetone • • 1.5 parts by weight of dimethylformamide
(§1) Emulsifier: 0.5 parts by weight of alkylaryl polyglycol ether
(§2) To produce a suitable active compound preparation, 1 part by weight of active compound is mixed with the stated amounts of solvent and emulsifier, and the concentrate is diluted with emulsifier-containing water to the desired concentration.
Disks of Chinese cabbage leaves (Brassica pekinensis) infested by all stages of the green peach aphid (Myzus persicae) are sprayed with an active compound preparation of the desired concentration.
After the desired period of time, the efficacy in % is determined. 100% means that all the aphids have been killed; 0% means that none of the aphids have been killed.

Spodoptera frugiperda = Spodoptera frugiperda - spray test (SPODFR); format: in vivo; settings: application rate 100 g/ha, maize leaf disks
Description: Spodoptera frugiperda—Spray Test (SPODFR)
Solvent: 78.0 parts by weight of acetone • • 1.5 parts by weight of dimethylformamide
as §1, §2
Leaf disks of maize (Zea mays) are sprayed with an active compound preparation of the desired concentration and, after drying, populated with caterpillars of the armyworm (Spodoptera frugiperda).
After the desired period of time, the efficacy in % is determined. 100% means that all the caterpillars have been killed; 0% means that no caterpillars have been killed.

[2] = Table A, HPLC reversed-phase C18, 43° C.
[3] = Table B, HPLC reversed-phase C18, 43° C.
[4] = reversed-phase HPLC column (C18), HPLC-MS data in the preparation text, HPLC reversed-phase C18, 43° C., read-out: log P
[5] = Table C, HPLC reversed-phase C18, 43° C.

| Structure (SMILES) | log p [1, 2] | efficacy (aphids killed) (Myzus persicae) [%] | efficacy (caterpillars killed) (Spodoptera frugiperda) [%] | chromatographic logP [1, 4] | other results |
| --- | --- | --- | --- | --- | --- |
| CON=Cc1cc(C)c(NC(=O)c2cc(OCC(F)F)nn2-c2ncccc2Cl)c(C(=O)NNC(=O)OC)c1 (mixture of isomers) [A-37] | 2.37 | 100 | 100 |  |  |
| CON=Cc1cc(C)c(NC(=O)c2cc(OC)nn2-c2ncccc2Cl)c(C(=O)NNC(=O)OC)c1 (mixture of isomers) [A-40] | 2.45 | 90 | 100 |  |  |
| CON=Cc1cc(C)c(NC(=O)c2cc(C(F)(F)F)nn2-c2ncccc2Cl)c(C(=O)NC2CS(=O)(=O)C2)c1 (mixture of isomers) [B-04] |  | 90 | 100 |  | log p [1, 3]: 2.78 |
| CON=Cc1cc(C)c(NC(=O)c2cc(OC(C)C)nn2-c2ncccc2Cl)c(C(=O)NC2COC2)c1 (mixture of isomers) [B-07] |  |  | 100 |  | log p [1, 3]: 2.57 |
| CON=Cc1cc(C)c(NC(=O)c2cc(OCC(F)F)nn2-c2ncccc2Cl)c(C(=O)NC2COC2)c1 (mixture of isomers) [B-09] |  | 100 | 100 |  | log p [1, 3]: 2.44 |
| O=C(O)c1cc(OCC(F)F)nn1-c1ncccc1Cl [1-(3-Chloropyridin-2-yl)-3-(2,2-difluoroethoxy)-1H-pyrazole-5-carboxylic acid] |  |  |  | 1.59 |  |
| CO/N=C/c1cc(C)c(NC(=O)c2cc(OC(F)F)nn2-c2ncccc2Cl)c(C(=O)NN)c1 [1-(3-Chloropyridin-2-yl)-3-(difluoromethoxy)-N-{2-(hydrazinocarbonyl)-4-[(E)-(methoxyimino)methyl]-6-methylphenyl}-1H-pyrazole-5-carboxamide] |  |  |  |  | chromatographic logP ([1]; log P): 2.12 |
| O=C(O)c1cc(CF)nn1-c1ncccc1Cl [1-(3-Chloropyridin-2-yl)-3-(fluoromethyl)-1H-pyrazole-5-carboxylic acid] |  |  |  | 1.03 |  |
| CCOc1cc(C(=O)O)n(-c2ncccc2Cl)n1 [1-(3-chloropyridin-2-yl)-3-ethoxy-1H-pyrazole-5-carboxylic acid] |  |  |  | 1.47 |  |
| CC(C)Oc1cc(C(=O)O)n(-c2ncccc2Cl)n1 [1-(3-chloropyridin-2-yl)-3-isopropoxy-1H-pyrazole-5-carboxylic acid] |  |  |  | 1.76 |  |
| O=C(O)c1cc(OCc2ccc(C(F)(F)F)nc2)nn1-c1ncccc1Cl [1-(3-chloropyridin-2-yl)-3-{[6-(trifluoromethyl)pyridin-3-yl]methoxy}-1H-pyrazole-5-carboxylic acid] |  |  |  | 1.59 |  |
| CON=Cc1cc(C)c2nc(-c3cc(OCC(F)F)nn3-c3ncccc3Cl)oc(=O)c2c1 [2-[1-(3-Chloropyridin-2-yl)-3-(2,2-difluoroethoxy)-1H-pyrazol-5-yl]-8-methyl-4-oxo-4H-3,1-benzoxazine-6-carbaldehyde O-methyl oxime] |  |  |  | 3.92 |  |
| CON=Cc1cc(C)c2nc(-c3cc(OC(F)F)nn3-c3ncccc3Cl)oc(=O)c2c1 [2-[1-(3-Chloropyridin-2-yl)-3-(difluoromethoxy)-1H-pyrazol-5-yl]-8-methyl-4-oxo-4H-3,1-benzoxazine-6-carbaldehyde O-methyl oxime] |  |  |  | 3.93 |  |
| CON=Cc1cc(C)c(NC(=O)c2cc(Br)nn2-c2ncccc2Cl)c(C(=O)N(C)NC(=O)Oc2ccccc2)c1 [A-05] | 3.46 | 100 | 100 |  |  |
| C=CCOC(=O)NN(C)C(=O)c1cc(C=NOC)cc(C)c1NC(=O)c1cc(Br)nn1-c1ncccc1Cl [A-07] | 3.12 |  | 100 |  |  |
| CON=Cc1cc(C)c(NC(=O)c2cc(Br)nn2-c2ncccc2Cl)c(C(=O)NNS(C)(=O)=O)c1 [A-09] | 2.30 | 90 | 100 |  |  |
| CCOC(=O)NN(C)C(=O)c1cc(C=NOC)cc(C)c1NC(=O)c1cc(Br)nn1-c1ncccc1Cl [A-10] | 2.97 | 90 | 100 |  |  |
| CON=Cc1cc(C)c(NC(=O)c2cc(Br)nn2-c2ncccc2Cl)c(C(=O)N(NC(C)=O)C(C)=O)c1 [A-11] | 2.67 | 100 | 100 |  |  |

| Structure (SMILES) | log p [1, 2] | efficacy (aphids killed) (Myzus persicae) [%] | efficacy (caterpillars killed) (Spodoptera frugiperda) [%] | chromatographic logP [1, 4] | other results |
| --- | --- | --- | --- | --- | --- |
| CON=Cc1cc(C)c(NC(=O)c2cc(Br)nn2-c2ncccc2Cl)c(C(=O)N(NS(C)(=O)=O)S(C)(=O)=O)c1 [A-12] | 2.99 |  | 100 |  |  |
| COCCOC(=O)NN(C)C(=O)c1cc(C=NOC)cc(C)c1NC(=O)c1cc(Br)nn1-c1ncccc1Cl [A-13] | 2.72 | 90 | 100 |  |  |
| CON=Cc1cc(C)c(NC(=O)c2cc(Br)nn2-c2ncccc2Cl)c(C(=O)N(C)NC(C)=O)c1 [A-14] | 2.31 | 90 | 100 |  |  |
| CON=Cc1cc(C)c(NC(=O)c2cc(Br)nn2-c2ncccc2Cl)c(C(=O)NNC(=O)Oc2ccccc2)c1 [A-15] | 3.03 | 90 | 100 |  |  |
| CON=Cc1cc(C)c(NC(=O)c2cc(Br)nn2-c2ncccc2Cl)c(C(=O)N(C)NC(=O)OC(C)C)c1 [A-16] | 3.28 |  | 100 |  |  |
| CCOC(=O)NN(C)C(=O)c1cc(C=NOC)cc(C)c1NC(=O)c1cc(C(F)(F)F)nn1-c1ncccc1Cl [A-24] | 3.31 |  | 100 |  |  |
| COCCOC(=O)NN(C)C(=O)c1cc(C=NOC)cc(C)c1NC(=O)c1cc(C(F)(F)F)nn1-c1ncccc1Cl [A-27] | 3.05 |  | 100 |  |  |
| C=CCOC(=O)NN(C)C(=O)c1cc(C=NOC)cc(C)c1NC(=O)c1cc(C(F)(F)F)nn1-c1ncccc1Cl [A-28] | 3.41 |  | 100 |  |  |
| CON=Cc1cc(C)c(NC(=O)c2cc(C(F)(F)F)nn2-c2ncccc2Cl)c(C(=O)N(C)NC(C)=O)c1 [A-30] | 2.75 |  | 100 |  |  |
| CON=Cc1cc(C)c(NC(=O)c2cc(OCC(F)F)nn2-c2ncccc2Cl)c(C(=O)N(C)C)c1 [C-38] |  |  | 100 |  | log p [1, 5]: 2.61 |
| CON=Cc1cc(C)c(NC(=O)c2cc(OC)nn2-c2ncccc2Cl)c(C(=O)N(C)C)c1 [C-40] |  |  |  |  | log p [1, 5]: 2.16 |
| CON=Cc1cc(C)c(NC(=O)c2cc(CF)nn2-c2ncccc2Cl)c(C(=O)N(C)C)c1 [C-55] |  |  | 100 |  | log p [1, 5]: 2.19 |
| CON=Cc1cc(C)c(NC(=O)c2cc(C(F)F)nn2-c2ncccc2Cl)c(C(=O)N(C)C)c1 [C-61] |  |  | 100 |  | log p [1, 5]: 2.47 |
| CCOC(=O)c1cc(OCC(F)F)nn1-c1ncccc1Cl [Ethyl 1-(3-chloropyridin-2-yl)-3-(2,2-difluoroethoxy)-1H-pyrazole-5-carboxylate] |  |  |  | 2.74 |  |
| Cc1cc(C=O)cc(C(=O)O)c1N [IX-1, 2-Amino-5-formyl-3-methylbenzoic acid] |  |  |  | 1.02 |  |
| COC(=O)c1cc(CF)nn1-c1ncccc1Cl [Methyl 1-(3-chloropyridin-2-yl)-3-(fluoromethyl)-1H-pyrazole-5-carboxylate] |  |  |  | 1.9 |  |
| CO/N=C/c1cc(C)c(N)c(C(=O)O)c1 [VIII-1, 2-Amino-5-[(E)-(methoxyimino)methyl]-3-methylbenzoic acid] |  |  |  | 1.73 |  |
